According to patent publication US20260083865A1, “PROSTATE SPECIFIC MEMBRANE ANTIGEN (PSMA) LIGANDS AND USE THEREOF” (priority 2022, published 2026):
Like-named read-outs stand apart in the source and are kept apart here. Values belong to the molecule of their own block, whether it stands above or below them. Numbered stars: 1 amine (or outer) side, 2 acyl side, 3 side chain; on linkers, the order of the positions; unused ones are H or OH. Bridge positions count the residues as written; N and C are the ends. Square brackets hold non-standard residues; d marks the D form. Peptide text beside a SMILES is read from it. * marks the point of attachment. ξ: configuration not given here. TtdsdLys(DOTA)NH2 = NC(=O)[C@@H](CCCCNC(=O)CN1CCN(CC(=O)O)CCN(CC(=O)O)CCN(CC(=O)O)CC1)NC(=O)CCC(=O)NCCCOCCOCCOCCCN*; DOTA = O=C(O)CN1CCN(CC(=O)O)CCN(CC(=O)*)CCN(CC(=O)O)CC1; Phe(4-Cl) = N[C@@H](Cc1ccc(Cl)cc1)C(=O)O; Arg(Me) = CNC(=N)NCCC[C@H](N)C(=O)O; Ethylenediamine = C(CN[*:2])N[*:1]; X1 = O=C(CC1CCN([*:1])CC1)[*:2]; Cit = NC(=O)NCCC[C@H](N)C(=O)O; Lys(Me) = CNCCCC[C@H](N)C(=O)O; Tle = CC(C)(C)[C@H](N)C(=O)O; Hexanoyl = CCCCCC(=O)*; Aib = CC(C)(N)C(=O)O; ξP = O=C(O)C1CCCN1

How the values were obtained:
[1] = target: T1, PSMA-expressing C4-2 cells (Homo sapiens, UniProt Q04609); assay: FACS binding assay (competition with 50 nM PSM-0183); conditions: for IC50: read-out: pIC50 [C4-2] CAT (converted)
T1 construct: PSMA-expressing C4-2 cells (ATCC, Cat. No. CRL-3314) were cultured in RPMI-1640; host or cells: C4-2 cells
Summary of the method: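 C4-2 cells were incubated 1 h at 4 °C with 50 nM AF488-labelled peptide PSM-0183 plus increasing test compound concentrations, then washed twice in ice-cold buffer. Median fluorescence in the AF488 channel was read by flow cytometry. IC50/pIC50 was derived by 4PL fitting of MFI versus concentration.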

[2] = target: T2, Fc-fusion protein of human PSMA (hPSMA-Fc) (Homo sapiens, UniProt Q04609); assay: Surface plasmon resonance assay (Biacore T200, single cycle kinetic); assay type: binding; conditions: for Kd: read-out: pKD CAT (converted)
T2 construct: purchased Acro Biosystems PSA-H5264
Summary of the method: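 hPSMA-Fc was captured (~1000 RU) on an Fc-binding-peptide CM5 chip, and compounds were run in single cycle kinetic mode at 25° C in HBST with 0.1% DMSO. Double-blank-corrected sensorgrams were fitted to a 1:1 Langmuir model to give KD, reported as pKD.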

[3] = pIC50 category of FACS binding, C4-2 cells
[4] = pKD category for PSMA SPR activity assay, hPSMA-Fc, 25° C.
[5] = FACS binding, C4-2 cells, competition with 50 nM PSM-0183, category
[6] = SPR, hPSMA-Fc, single cycle kinetic, 25° C., category

T2 sequence (Q04609 44-750 limits assumed): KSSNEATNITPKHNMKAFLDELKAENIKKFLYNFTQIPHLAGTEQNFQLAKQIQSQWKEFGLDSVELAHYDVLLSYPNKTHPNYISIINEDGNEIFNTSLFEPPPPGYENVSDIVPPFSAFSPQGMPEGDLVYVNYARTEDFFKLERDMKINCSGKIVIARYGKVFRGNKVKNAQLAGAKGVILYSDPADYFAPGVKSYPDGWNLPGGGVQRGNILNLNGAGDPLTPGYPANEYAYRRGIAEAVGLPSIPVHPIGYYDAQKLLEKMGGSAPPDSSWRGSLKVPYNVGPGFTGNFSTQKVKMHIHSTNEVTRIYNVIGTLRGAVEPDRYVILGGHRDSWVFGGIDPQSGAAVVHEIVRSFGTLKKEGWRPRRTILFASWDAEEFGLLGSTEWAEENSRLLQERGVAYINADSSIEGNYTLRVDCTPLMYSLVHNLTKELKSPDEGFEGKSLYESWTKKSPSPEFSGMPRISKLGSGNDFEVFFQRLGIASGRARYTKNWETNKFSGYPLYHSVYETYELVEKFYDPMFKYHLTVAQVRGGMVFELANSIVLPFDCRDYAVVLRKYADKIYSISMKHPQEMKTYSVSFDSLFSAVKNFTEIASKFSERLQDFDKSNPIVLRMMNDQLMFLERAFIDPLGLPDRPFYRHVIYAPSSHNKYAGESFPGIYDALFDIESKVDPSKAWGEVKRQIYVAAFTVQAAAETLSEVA
T1 sequence (Q04609 whole entry): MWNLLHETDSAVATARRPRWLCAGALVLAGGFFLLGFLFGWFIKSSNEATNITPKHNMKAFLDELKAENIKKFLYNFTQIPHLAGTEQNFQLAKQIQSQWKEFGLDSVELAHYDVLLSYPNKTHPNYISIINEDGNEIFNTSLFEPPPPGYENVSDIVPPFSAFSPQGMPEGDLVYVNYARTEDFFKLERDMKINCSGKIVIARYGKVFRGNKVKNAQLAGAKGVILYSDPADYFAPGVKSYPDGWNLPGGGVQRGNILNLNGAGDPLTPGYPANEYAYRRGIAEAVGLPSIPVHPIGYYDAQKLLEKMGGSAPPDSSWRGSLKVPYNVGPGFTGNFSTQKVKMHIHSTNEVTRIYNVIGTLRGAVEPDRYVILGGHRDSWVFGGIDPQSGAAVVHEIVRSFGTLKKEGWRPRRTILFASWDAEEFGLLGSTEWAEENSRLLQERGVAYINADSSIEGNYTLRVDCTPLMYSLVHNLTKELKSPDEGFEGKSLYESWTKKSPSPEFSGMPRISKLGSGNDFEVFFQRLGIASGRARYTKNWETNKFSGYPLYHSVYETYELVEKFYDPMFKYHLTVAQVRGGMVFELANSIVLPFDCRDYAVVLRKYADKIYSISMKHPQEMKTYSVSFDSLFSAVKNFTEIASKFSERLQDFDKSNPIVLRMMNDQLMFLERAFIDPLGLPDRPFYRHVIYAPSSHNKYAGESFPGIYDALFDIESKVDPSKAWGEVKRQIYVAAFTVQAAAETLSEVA

IC50 [1, 3]: < 200 nM
Kd [2, 4]: 12.6 to 126 nM
Molecule: CC(=O)N[C@H](C(=O)NC(C)(C)C(=O)N[C@@H](Cc1ccccc1)C(=O)N[C@H]1CSSC[C@@H](C(=O)N[C@H](C(=O)N[C@H](C(=O)N[C@@H](CC(=O)O)C(N)=O)[C@@H](C)O)C(C)(C)C)NC(=O)[C@H](CC(N)=O)NC(=O)[C@H](C)NC(=O)[C@H](CCCNC(=N)N)NC(=O)[C@H](CCC(N)=O)NC1=O)[C@@H](C)O [PSM-0435, Ac-Thr-Aib-Phe-[Cys-Gln-Arg-Ala-Asn-Cys]-Tle-Thr-Asp-NH2] (Ac-T[Aib]FCQRANC[Tle]TD-NH2; disulfide 4-9)

IC50 ([1]; FACS binding, C4-2 cells, category): < 200 nM
Kd ([2]; PSMA SPR assay, category): < 12.6 nM
Molecule: CNCCCC[C@@H]1NC(=O)[C@@H](NC(=O)[C@H](Cc2ccccc2)NC(=O)C(C)(C)NC(=O)[C@@H](NC(=O)CC2CCN(C(=O)CN3CCN(CC(=O)O)CCN(CC(=O)O)CCN(CC(=O)O)CC3)CC2)[C@@H](C)O)CSSC[C@@H](C(=O)N[C@H](C(=O)NCCN)C(C)(C)C)NC(=O)[C@H](CC(N)=O)NC(=O)C(C)(C)NC(=O)[C@H](CCCNC(=N)NC)NC1=O [PSM-605] ({DOTA}-[X1]T[Aib]FC[Lys(Me)][Arg(Me)][Aib]NC[Tle]-Ethylenediamine; disulfide 5-10)

IC50 [1, 3]: < 200 nM
Kd [2, 4]: < 12.6 nM
Molecule: CCCCCC(=O)N[C@H](C(=O)NC(C)(C)C(=O)N[C@@H](Cc1ccccc1)C(=O)N[C@H]1CSSC[C@@H](C(=O)N[C@H](C(=O)N[C@H](C(=O)N[C@@H](CC(=O)O)C(=O)NCCCOCCOCCOCCCNC(=O)CCC(=O)N[C@H](CCCCNC(=O)CN2CCN(CC(=O)O)CCN(CC(=O)O)CCN(CC(=O)O)CC2)C(N)=O)[C@@H](C)O)C(C)(C)C)NC(=O)[C@H](CC(N)=O)NC(=O)[C@H](C)NC(=O)[C@H](CCCNC(=N)N)NC(=O)[C@H](CCCCN)NC1=O)[C@@H](C)O [PSM-0502, Hex-Thr-Aib-Phe-[Cys-Lys-Arg-Ala-Asn-Cys]-Tle-Thr-Asp-Ttds-lys(DOTA)-NH2] (Hexanoyl-T[Aib]FCKRANC[Tle]TD-{TtdsdLys(DOTA)NH2}; disulfide 4-9)

Further lines, the molecule ahead of its results:

Molecule: CC(=O)N[C@H](C(=O)NC(C)(C)C(=O)N[C@@H](Cc1ccccc1)C(=O)N[C@H]1CSSC[C@@H](C(=O)N[C@H](C(=O)N2CCCC2C(N)=O)C(C)(C)C)NC(=O)[C@H](CC(N)=O)NC(=O)C(C)(C)NC(=O)[C@H](CCCNC(=N)N)NC(=O)[C@H](CCCCN)NC1=O)[C@@H](C)O (stereo partly drawn) [PSM-0388, Ac-Thr-Aib-Phe-[Cys-Lys-Arg-Aib-Asn-Cys]-Tle-Pro-NH2] (Ac-T[Aib]FCKR[Aib]NC[Tle][ξP]-NH2; disulfide 4-9)
IC50 [1, 3]: < 200 nM
Kd [2, 4]: < 12.6 nM

Molecule: InDOTA-Cmp-Thr-Aib-Phe-[Cys-Lys-Arg-Aib-Asn-Cys]-Tle-Thr-NH2 [PSM-0195]
pIC50 [C4-2] CAT [1, 5]: A (pIC50 values >6.7)
pKD CAT [2, 6]: A (pKD values >7.9)

Molecule: CC(=O)N[C@@H](C)C(=O)N[C@@H](Cc1ccccc1)C(=O)N[C@H]1CSSC[C@@H](C(=O)N[C@@H](CC(C)C)C(=O)N[C@H](C(=O)N[C@@H](CC(=O)O)C(=O)NCCCOCCOCCOCCCNC(=O)CCC(=O)N[C@H](CCCCNC(=O)CN2CCN(CC(=O)O)CCN(CC(=O)O)CCN(CC(=O)O)CC2)C(N)=O)[C@@H](C)O)NC(=O)[C@H](CC(N)=O)NC(=O)[C@H](C)NC(=O)[C@H](CCCNC(=N)N)NC(=O)[C@H](CCCCN)NC1=O [PSM-0299, Ac-Ala-Phe-[Cys-Lys-Arg-Ala-Asn-Cys]-Leu-Thr-Asp-Ttds-lys(DOTA)-NH2] (Ac-AFCKRANCLTD-{TtdsdLys(DOTA)NH2}; disulfide 3-8)
IC50 ([1]; FACS binding, PSMA-expressing C4-2 cells, pIC50 category): 1260 to 3160 nM
Kd ([2]; PSMA SPR assay, hPSMA-Fc, 25° C., pKD category): 12.6 to 126 nM

Molecule: CC(=O)N[C@H](C(=O)NC(C)(C)C(=O)N[C@@H](Cc1ccccc1)C(=O)N[C@H]1CSSC[C@@H](C(=O)N[C@H](C(=O)N[C@H](C(=O)N[C@@H](CC(=O)O)C(N)=O)[C@@H](C)O)C(C)(C)C)NC(=O)[C@H](CC(N)=O)NC(=O)C(C)(C)NC(=O)[C@H](CCCNC(=N)N)NC(=O)[C@H](CCC(N)=O)NC1=O)[C@@H](C)O [PSM-0210, Ac-Thr-Aib-Phe-[Cys-Gln-Arg-Aib-Asn-Cys]-Tle-Thr-Asp-NH2] (Ac-T[Aib]FCQR[Aib]NC[Tle]TD-NH2; disulfide 4-9)
IC50 [1, 5]: < 200 nM
Kd [2, 6]: 12.6 to 126 nM

Molecule: CC(=O)N[C@H](C(=O)NC(C)(C)C(=O)N[C@@H](Cc1ccc(Cl)cc1)C(=O)N[C@H]1CSSC[C@@H](C(=O)N[C@H](C(=O)N[C@H](C(N)=O)[C@@H](C)O)C(C)(C)C)NC(=O)[C@H](CC(N)=O)NC(=O)C(C)(C)NC(=O)[C@H](CCCNC(N)=O)NC(=O)[C@H](CCCCN)NC1=O)[C@@H](C)O [PSM-0179, Ac-Thr-Aib-Pcf-[Cys-Lys-Cit-Aib-Asn-Cys]-Tle-Thr-NH2] (Ac-T[Aib][Phe(4-Cl)]CK[Cit][Aib]NC[Tle]T-NH2; disulfide 4-9)
IC50 [1, 5]: < 200 nM
Kd [2, 6]: < 12.6 nM
